Data published in ChEMBL document CHEMBL1157077, “Gneyulins A and B, stilbene trimers, and noidesols A and B, dihydroflavonol-C-glucosides, from the bark of Gnetum gnemonoides” (J Nat Prod, 2010).

Tests used:
[1] = molecular target: T1, Sodium/glucose cotransporter 2 (Homo sapiens, UniProt P31639); assay: Inhibition of SGLT2 transfected in african green monkey COS1 cells assessed as alpha-D-[U-14C]glucopyranoside uptake after 30 mins by scintillation counting; format: cell-based, COS-1
T1 sequence (P31639 whole entry): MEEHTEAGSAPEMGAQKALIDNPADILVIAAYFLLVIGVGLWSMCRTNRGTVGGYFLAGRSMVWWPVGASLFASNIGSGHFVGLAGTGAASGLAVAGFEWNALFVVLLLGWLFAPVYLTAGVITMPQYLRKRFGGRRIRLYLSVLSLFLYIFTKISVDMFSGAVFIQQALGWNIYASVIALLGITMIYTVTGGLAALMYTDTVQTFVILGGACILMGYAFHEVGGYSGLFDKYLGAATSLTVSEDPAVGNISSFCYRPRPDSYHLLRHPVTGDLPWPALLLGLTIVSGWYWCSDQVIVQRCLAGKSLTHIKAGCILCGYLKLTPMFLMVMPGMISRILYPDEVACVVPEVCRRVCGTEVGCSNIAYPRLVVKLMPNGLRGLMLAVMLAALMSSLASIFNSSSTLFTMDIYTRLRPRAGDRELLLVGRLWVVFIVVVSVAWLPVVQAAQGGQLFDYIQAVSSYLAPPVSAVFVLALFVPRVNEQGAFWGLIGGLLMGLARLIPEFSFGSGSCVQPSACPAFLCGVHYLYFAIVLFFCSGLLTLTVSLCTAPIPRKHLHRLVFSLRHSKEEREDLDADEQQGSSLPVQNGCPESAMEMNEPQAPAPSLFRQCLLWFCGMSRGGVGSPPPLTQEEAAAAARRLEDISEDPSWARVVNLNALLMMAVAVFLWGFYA

[2] = molecular target: T2, Sodium/glucose cotransporter 1 (Homo sapiens, UniProt P13866); assay: Inhibition of SGLT1 transfected in african green monkey COS1 cells assessed as alpha-D-[U-14C]glucopyranoside uptake after 30 mins by scintillation counting; format: cell-based, COS-1
T2 sequence (P13866 whole entry): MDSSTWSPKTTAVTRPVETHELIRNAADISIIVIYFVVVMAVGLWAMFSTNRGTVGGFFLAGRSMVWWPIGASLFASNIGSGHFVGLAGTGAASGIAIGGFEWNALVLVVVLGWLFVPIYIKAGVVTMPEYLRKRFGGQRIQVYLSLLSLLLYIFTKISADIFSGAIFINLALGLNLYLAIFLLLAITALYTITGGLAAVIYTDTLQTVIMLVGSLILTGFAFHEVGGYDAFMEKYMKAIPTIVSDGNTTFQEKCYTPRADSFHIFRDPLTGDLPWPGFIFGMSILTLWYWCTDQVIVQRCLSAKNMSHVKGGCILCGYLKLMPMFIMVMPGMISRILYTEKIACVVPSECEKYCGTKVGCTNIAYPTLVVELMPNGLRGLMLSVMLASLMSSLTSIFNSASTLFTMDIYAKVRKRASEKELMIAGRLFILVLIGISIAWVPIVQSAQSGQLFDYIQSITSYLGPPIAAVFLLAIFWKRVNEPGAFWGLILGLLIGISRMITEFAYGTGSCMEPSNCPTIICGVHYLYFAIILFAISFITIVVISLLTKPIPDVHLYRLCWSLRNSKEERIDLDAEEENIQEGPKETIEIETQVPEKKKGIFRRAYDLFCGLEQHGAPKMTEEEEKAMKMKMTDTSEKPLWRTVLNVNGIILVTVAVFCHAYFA

Row | IC50 ([1]; read-out: IC50) [µM] | IC50 ([2]; read-out: IC50) [µM] | IC50 ([1]; cos-1) | IC50 ([2]; cos-1) | Compound
1 | 25 | 27 | – | – | Oc1cc(O)cc([C@@H]2c3cc([C@@H]4Oc5cc(/C=C/c6ccc(O)cc6O)cc(O)c5[C@H]4c4cc(O)cc(O)c4)c(O)cc3O[C@H]2c2ccc(O)cc2O)c1 [GNEYULIN A]
2 | 18 | 37 | – | – | Oc1cc(O)cc([C@@H]2c3cc([C@@H]4Oc5cc(-c6cc7ccc(O)cc7o6)cc(O)c5[C@H]4c4cc(O)cc(O)c4)c(O)cc3O[C@H]2c2ccc(O)cc2O)c1 [GNEYULIN B]
3 | – | – | Not Active | Not Active | COc1cc(O)c2c(c1[C@@H]1O[C@H](CO)[C@@H](O)[C@H](O)[C@H]1O)O[C@H](c1ccc(O)c(O)c1)[C@@H](O)C2=O [NOIDESOL A]
4 | – | – | Not Active | Not Active | COc1ccc([C@H]2Oc3cc(O)c([C@@H]4O[C@H](CO)[C@@H](O)[C@H](O)[C@H]4O)c(O)c3C(=O)[C@@H]2O)cc1O [NOIDESOL B]
